From patent US10212936B2, “Molecules having pesticidal utility, and intermediates, compositions, and processes, related thereto” (priority 2014, dated 2019)

Legend:
Type in all cases: in vivo
[1] = test system: Beet Armyworm (Spodoptera exigua, LAPHEG); assay: Bioassay on Beet Armyworm (BAW), 128-well diet tray assay; settings: 168 h, 50 μg/cm^2 on artificial diet, second instar larvae, five to seven days, 25° C., read-out: BAW % Control (or Mortality) rating
How it was run: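 Second instar larvae, one to five per well, placed on artificial diet treated with 50 μg/cm^2 compound (in 90:10 acetone-water) and dried; eight wells per compound. Held at 25° C, 14:10 light-dark, five to seven days. Percent mortality recorded per well and averaged.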

[2] = test system: Cabbage Looper (Trichoplusia ni, TRIPNI); assay: Bioassay on Cabbage Looper (CL), 128-well diet tray assay; settings: 168 h, 50 μg/cm^2 on artificial diet, second instar larvae, five to seven days, 25° C., read-out: CL % Control (or Mortality) rating
How it was run: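 Diet-tray test with one to five second-instar larvae per well on artificial diet treated with 50 μg/cm^2 compound (in 90:10 acetone-water), dried, eight wells per molecule. Held 25 °C, 14:10 light-dark for five to seven days; percent mortality averaged over the eight wells.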

[3] = test system: Green Peach Aphid (Myzus persicae, MYZUPE); assay: Bioassay on Green Peach Aphid (GPA), foliar spray on cabbage seedlings; settings: 72 h, 200 ppm foliar spray on cabbage seedlings, three days, Abbott corrected % control, read-out: GPA % Control (or Mortality) rating
Method: Example B: Bioassays on Green Peach Aphid (Myzus persicae, MYZUPE) (“GPA”)
Certain molecules disclosed in this document were tested against GPA using procedures described in the following example. In the reporting of the results, the “GPA Rating Table” was used (See Table Section).
Cabbage seedlings grown in 3-inch pots, with 2-3 small (3-5 cm) true leaves, were used as test substrate. The seedlings were infested with 20-50 GPA (wingless adult and nymph stages) one day prior to chemical application. Four pots with individual seedlings were used for each treatment. Test molecules (2 mg) were dissolved in 2 mL of acetone/methanol (1:1) solvent, forming stock solutions of 1000 ppm test molecule. The stock solutions were diluted 5× with 0.025% Tween 20 in water to obtain the solution at 200 ppm test molecule. A hand-held aspirator-type sprayer was used for spraying a solution to both sides of […] leaves until runoff. Reference plants (solvent check) were sprayed with the diluent only containing 20% by volume of acetone/methanol (1:1) solvent. Treated plants were held in a holding room for three days at approximately 25° C. and ambient relative humidity (RH) prior to grading. Evaluation was conducted by counting the number of live aphids per plant under a microscope. Percent Control was measured by using Abbott's correction formula (W. S. Abbott, “A Method of Computing the Effectiveness of an Insecticide” J. Econ. Entomol. 18 (1925), pp. 265-267) as follows. Corrected % Control=100*(X−Y)/X • where • X=No. of live aphids on solvent check plants and • Y=No. of live aphids on treated plants
The results are indicated in the table entitled “Table ABC: Biological Results” (See Table Section).

[4] = test system: Yellow Fever Mosquito (Aedes aegypti, AEDSAE); assay: Bioassay on Yellow Fever Mosquito (YFM) larvae, 96-well plate; settings: about 1 day-old larvae, 4000 ppm DMSO master plate diluted, graded after 3 days
How it was run: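 Compounds from 4000 ppm DMSO master stocks, diluted in 90:10 water:acetone, dispensed into wells and infested with about 1-day-old Aedes aegypti larvae in liver-powder water. Six replicate plates, covered and held at room temperature for 3 days, then each well scored for mortality.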

Compound: Cc1ccc(F)cc1-n1nccc1NC(=O)Nc1ccc(-c2ncn(-c3ccc(OC(F)(F)C(F)(F)F)cc3)n2)cc1 [F16, 1-(1-(5-Fluoro-2-methylphenyl)-1H-pyrazol-5-yl)-3-(4-(1-(4-(perfluoroethoxy)phenyl)-1H-1,2,4-triazol-3-yl)phenyl)urea]
- mortality at 50 µg/cm2 [1]: 50 to 100%
- mortality at 50 µg/cm2 [2]: 50 to 100%
- mortality at 200 ppm [3]: 0%
- YFM % Control (or Mortality) rating [4]: A (80-100)

Compound: Cc1ccc(C)c(-n2nccc2NC(=O)Nc2ccc(-c3ncn(-c4ccc(OC(F)(F)C(F)(F)F)cc4)n3)cc2)c1 [F17, 1-(1-(2,5-Dimethylphenyl)-1H-pyrazol-5-yl)-3-(4-(1-(4-(perfluoroethoxy)phenyl)-1H-1,2,4-triazol-3-yl)phenyl)urea]
- mortality at 50 µg/cm2 [1]: 50 to 100%
- mortality at 50 µg/cm2 [2]: 50 to 100%
- mortality at 200 ppm [3]: 0 to 80%
- YFM % Control (or Mortality) rating [4]: A (80-100)

Compound: Cc1cc(C)c(-n2nccc2NC(=O)Nc2ccc(-c3ncn(-c4ccc(OC(F)(F)C(F)(F)F)cc4)n3)cc2)c(C)c1 [F18, 1-(1-Mesityl-1H-pyrazol-5-yl)-3-(4-(1-(4-(perfluoroethoxy)phenyl)-1H-1,2,4-triazol-3-yl)phenyl)urea]
- mortality at 50 µg/cm2 [1]: 50 to 100%
- mortality at 50 µg/cm2 [2]: 50 to 100%
- mortality at 200 ppm [3]: 0 to 80%
- YFM % Control (or Mortality) rating [4]: A (80-100)

Compound: COc1ccccc1-n1nccc1NC(=O)Nc1ccc(-c2ncn(-c3ccc(OC(F)(F)C(F)(F)F)cc3)n2)cc1 [F19, 1-(1-(2-Methoxyphenyl)-1H-pyrazol-5-yl)-3-(4-(1-(4-(perfluoroethoxy)phenyl)-1H-1,2,4-triazol-3-yl)phenyl)urea]
- mortality at 50 µg/cm2 [1]: 50 to 100%
- mortality at 50 µg/cm2 [2]: 50 to 100%
- mortality at 200 ppm [3]: 0 to 80%
- YFM % Control (or Mortality) rating [4]: A (80-100)
